Test results taken from patent publication US8772481B2, “Aza- and diaza-phthalazine compounds as P38 map kinase modulators and methods of use thereof” (Amgen Inc., priority 2008, dated 2014).

Tests used:
[1] = system: TNF-α induced IL-8 in human whole blood; test: Inhibition of TNF-α induced IL-8 in 50% human whole blood; assay type: cell-based; conditions: 1 nM TNF-α, secreted IL-8, read-out: WB TNF/IL8 IC50
Protocol: Inhibition of TNF-α Induced IL-8 in 50% Human Whole Blood
Test compounds were evaluated in vitro for the ability to inhibit the production of secreted IL-8 by whole blood activated with TNF-α. Fresh human whole blood was obtained from healthy, non-medicated volunteers in sodium heparin tubes.
Compound Dilution—Assay Procedure
Test compounds are serially diluted 1:3 in DMSO and then diluted 1:250 into R10 (RPMI 1640, 10% human serum AB, 1× pen/strep/glutamine) to the 4× working concentration to be used in the assay. 100 ul heparinized whole blood is plated into wells of 96 well flat bottom plates. 50 ul of either 4× compound or DMSO control (Final DMSO concentration is 0.1%) are added to the appropriate wells. Plates are incubated for 1 hour at 37 degrees Celsius. 50 ul of 4×TNF-α (4 nM TNF-α, for a final concentration of 1 nM) or control (media alone) is added to the appropriate wells (Total volume=200 ul). Plates are incubated overnight (16-18 hours). 100 ul of supernatant is collected and stored in 96-well round bottom polypropylene plates at −80 degrees Celsius or assayed immediately for IL-8.
Cytokines are measured on antibody (Ab) sandwich ECL based 96-well detection plates. 20 ul of supernatant are added to plate and plate is sealed and shaken at RT for 1 hour. 130 ul of detection Ab cocktail is added and plates are sealed and shaken for 1 hour in the dark at RT. Plates are read on MSD Sector HTS instrument. Data are analyzed and IC50 values generated using Activity Base and Xl-fit programs.

human p38α = human p38α (Homo sapiens (Human), UniProt Q16539); test: Purified and activated recombinant human p38α HTRF assay; assay type: biochemical; conditions: 50 μM ATP, read-out: p38a IC50
Protocol: Purified and Activated Recombinant Human p38α Assay
Kinase reaction buffer for p38α HTRF assays consists of 50 mM Tris-pH 7.5, 5 mM MgCl2, 0.1 mg/mL BSA, 100 μM Na3VO4 and 0.5 mM DTT.
HTRF detection buffer contains 100 mM HEPES-pH 7.5, 100 mM NaCl, 0.1% BSA, 0.05% Tween-20, and 10 mM EDTA.
Serial Dilution of Compounds:
Compounds were dissolved in 100% DMSO and serially diluted (3 fold, 10 point) in a polypropylene 96-well microtiter plate (drug plate). The final starting concentration of compounds in the p38α enzymatic assays was 1 μM. Columns 6 and 12 (HI controls and LO controls respectively) in the drug plate were reserved as controls and contained only DMSO.
The p38α kinase reactions were carried out in a polypropylene 96-well black round bottom assay plate in total volume of 30 μL kinase reaction buffer. Appropriate concentration of purified and activated enzyme (recombinant human) was mixed with indicated concentration of ATP and 100 nM GST-ATF2-Avitag, in the presence or absence (HI control) of Compound. See table below for actual concentrations. In the absence of substrate, the background was measured as LO control. The reaction was allowed to incubate for 1 hour at RT.
Assay Reagent Concentrations:
The final reagent concentrations were 1 nM p38α and 50 μM ATP.
After 60 minutes incubation at room temperature, the assay plate was read in a Discovery Plate Reader. The wells were excited with coherent 320 nm light and the ratio of delayed ([…] post excitation) emissions at […] (native europium fluorescence) and 665 nm (europium fluorescence transferred to allophycocyanin—an index of substrate phosphorylation) was determined (Park et al, 1999).
The proportion of substrate phosphorylated in the kinase reaction in the presence of compound compared with that phosphorylated in the presence of DMSO vehicle alone (HI control) was calculated using the formula: % control (POC)=(compound−average LO)/(average HI−average LO)*100. Data (consisting of POC and inhibitor concentration in μM) was fitted to a 4-parameter equation (y=A+((B−A)/(1+((x/C)^D))), where A is the minimum y (POC) value, B is the maximum y (POC), C is the x (compound concentration) at the point of inflection and D is the slope factor, using a Levenburg-Marquardt non-linear regression algorithm.
The inhibition constant (Ki) of the inhibitor was estimated from the IC50 (compound concentration at the point of inflection C) using the Cheng-Prussof equation: Ki=IC50/(1+S/Km), where S is the ATP substrate concentration, and Km is the Michaelis constant for ATP as determined experimentally. All results were expressed as the mean±the standard error of the mean. Data acquisition and non-linear regression algorithms were performed using Activity Base v5.2 and XL-fit software v4.1 respectively. All data was archived using Activity Base v5.2 software.

Chain of human p38α (Q16539 whole entry): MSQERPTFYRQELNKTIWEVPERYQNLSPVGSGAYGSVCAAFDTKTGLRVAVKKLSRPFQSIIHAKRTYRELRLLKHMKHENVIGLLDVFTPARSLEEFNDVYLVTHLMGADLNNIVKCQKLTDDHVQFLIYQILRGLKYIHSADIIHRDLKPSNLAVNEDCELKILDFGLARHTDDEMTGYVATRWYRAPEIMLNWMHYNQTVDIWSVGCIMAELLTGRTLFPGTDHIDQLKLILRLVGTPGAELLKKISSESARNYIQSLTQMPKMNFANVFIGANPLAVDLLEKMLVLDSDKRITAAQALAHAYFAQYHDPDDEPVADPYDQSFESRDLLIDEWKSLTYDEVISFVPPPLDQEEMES

Row | Compound | IC50 [1] | IC50 (human p38α)
1 | Fc1ccc(Nc2ccc3c(N4CCOCC4)nncc3n2)c(F)c1 [Example 3, N-(2,4-difluorophenyl)-5-(4-morpholinyl)pyrido[2,3-d]pyridazin-2-amine] | 7.6 nM | 4 nM
2 | Cc1ccc(C(N)=O)cc1-c1nncc2nc(Oc3ccc(F)cc3F)ccc12 [Example 5, 3-(2-(2,4-difluorophenoxy)pyrido[2,3-d]pyridazin-5-yl)-4-methylbenzamide] | 1 nM | 0.3 nM
3 | Cc1ccccc1-c1nncc2nc(Nc3ccc(F)cc3F)ccc12 [Example 6, N-(2,4-difluorophenyl)-5-(2-methylphenyl)pyrido[2,3-d]pyridazin-2-amine] | 1.1 nM | 0.5 nM
4 | Cc1cc(S(C)(=O)=O)ccc1-c1nncc2nc(Nc3ccc(F)cc3F)ccc12 [Example 7, N-(2,4-difluorophenyl)-5-(2-methyl-4-(methylsulfonyl)phenyl)pyrido[2,3-d]pyridazin-2-amine] | 2.6 nM | 0.5 nM
5 | Cc1ncccc1-c1nncc2nc(Nc3ccc(F)cc3F)ccc12 [Example 8, N-(2,4-difluorophenyl)-5-(2-methyl-3-pyridinyl)pyrido[2,3-d]pyridazin-2-amine] | 2.6 nM | 1.2 nM
6 | Cc1cc(S(C)(=O)=O)ccc1-c1nncc2nc(Nc3ccc(F)cc3)ccc12 [Example 9, N-(4-fluorophenyl)-5-(2-methyl-4-(methylsulfonyl)phenyl)pyrido[2,3-d]pyridazin-2-amine] | 9 nM | 0.9 nM
7 | Fc1ccc(Nc2ccc3c(-c4ccc(F)cc4F)nncc3n2)c(F)c1 [Example 10, N,5-bis(2,4-difluorophenyl)pyrido[2,3-d]pyridazin-2-amine] | 2.1 nM | 0.3 nM
8 | O=C(c1cccc(-c2nncc3nc(Nc4ccc(F)cc4F)ccc23)c1)N1CCOCC1 [Example 11, N-(2,4-difluorophenyl)-5-(3-(4-morpholinylcarbonyl)phenyl)pyrido[2,3-d]pyridazin-2-amine] | 79 nM | 45 nM
9 | Cn1cc(-c2nncc3nc(Nc4ccc(F)cc4F)ccc23)cn1 [Example 12, N-(2,4-difluorophenyl)-5-(1-methyl-1H-pyrazol-4-yl)pyrido[2,3-d]pyridazin-2-amine] | 13 nM | 5.6 nM
10 | Fc1ccc(Nc2ccc3c(-c4cn[nH]c4)nncc3n2)c(F)c1 [Example 13, N-(2,4-difluorophenyl)-5-(1H-pyrazol-4-yl)pyrido[2,3-d]pyridazin-2-amine] | 2.3 nM | 3.5 nM
11 | Cc1n[nH]cc1-c1nncc2nc(Nc3ccc(F)cc3F)ccc12 [Example 14, N-(2,4-difluorophenyl)-5-(3-methyl-1H-pyrazol-4-yl)pyrido[2,3-d]pyridazin-2-amine] | 2.7 nM | 1.1 nM
12 | Cc1noc(C)c1-c1nncc2nc(Nc3ccc(F)cc3F)ccc12 [Example 15, N-(2,4-difluorophenyl)-5-(3,5-dimethyl-4-isoxazolyl)pyrido[2,3-d]pyridazin-2-amine] | 10 nM | 7.1 nM
13 | Cc1ccccc1-c1nncc2nc(Oc3ccc(F)cc3F)ccc12 [Example 16, 2-(2,4-difluorophenoxy)-5-(2-methylphenyl)pyrido[2,3-d]pyridazine] | 2.3 nM | 0.2 nM
14 | Cc1cc(S(C)(=O)=O)ccc1-c1nncc2nc(Oc3ccc(F)cc3F)ccc12 [Example 17, 2-(2,4-difluorophenoxy)-5-(2-methyl-4-(methylsulfonyl)phenyl)pyrido[2,3-d]pyridazine] | 12 nM | 0.7 nM
15 | Fc1ccc(Oc2ccc3c(-c4cn[nH]c4)nncc3n2)c(F)c1 [Example 18, 2-(2,4-difluorophenoxy)-5-(1H-pyrazol-4-yl)pyrido[2,3-d]pyridazine] | 24 nM | 5.1 nM
16 | Cc1ccccc1-c1nncc2nc(Oc3ccc(F)cc3)ccc12 [Example 19, 2-(4-fluorophenoxy)-5-(2-methylphenyl)pyrido[2,3-d]pyridazine] | 5.9 nM | 0.9 nM
17 | Cc1ccc(C(N)=O)cc1-c1nncc2nc(Oc3ccc(F)cc3)ccc12 [Example 20, 3-(2-(4-fluorophenoxy)pyrido[2,3-d]pyridazin-5-yl)-4-methylbenzamide] | 3.1 nM | 1.2 nM
18 | Cc1noc(C)c1-c1nncc2nc(Oc3ccc(F)cc3F)ccc12 [Example 21, 2-(2,4-difluorophenoxy)-5-(3,5-dimethyl-4-isoxazolyl)pyrido[2,3-d]pyridazine] | 43 nM | 6.5 nM
19 | Cc1cc(F)ccc1Oc1ccc2c(-c3ccccc3C)nncc2n1 [Example 22, 2-(4-fluoro-2-methylphenoxy)-5-(2-methylphenyl)pyrido[2,3-d]pyridazine] | 620 nM | 168 nM
20 | Cc1cc(F)ccc1Oc1ccc2c(-c3cc(C(N)=O)ccc3C)nncc2n1 [Example 23, 3-(2-(4-fluoro-2-methylphenoxy)pyrido[2,3-d]pyridazin-5-yl)-4-methylbenzamide] | 1030 nM | 417 nM
21 | N-(2,4-difluorophenyl)-5-(3,5-dimethyl-1H-pyrazol-4-yl)pyrido[2,3-d]pyridazin-2-amine [Example 2] | 1.8 nM | 1.6 nM
